Key:
[1] = anaerostipes sp., 12 h, 2 µM
Description: The drug is tested on Anaerostipes sp. strain: fecal isolate for biotransformation. The drug concentrations were measured before and after a 12-h incubation by liquid-chromatography-coupled mass spectrometry (LC–MS)

[2] = The drug is tested on Bacteroides sp. WH2 strain: WH2 for biotransformation. The drug concentrations were measured before and after a 12-h incubation by liquid-chromatography-coupled mass spectrometry (LC–MS); settings: bacteroides sp. wh2, 12 h, 2 µM
[3] = The drug is tested on Clostridium symbiosum strain: ATCC14940 for biotransformation. The drug concentrations were measured before and after a 12-h incubation by liquid-chromatography-coupled mass spectrometry (LC–MS); settings: 2 µM
[4] = bacteroides fragilis, 12 h, 2 µM
Description: The drug is tested on Bacteroides fragilis strain: NCTC 9343 for biotransformation. The drug concentrations were measured before and after a 12-h incubation by liquid-chromatography-coupled mass spectrometry (LC–MS)

[5] = The drug is tested on Subdoligranulum variabile strain: DSM15176 for biotransformation. The drug concentrations were measured before and after a 12-h incubation by liquid-chromatography-coupled mass spectrometry (LC–MS); settings: 2 µM
[6] = The drug is tested on Eggerthella lenta strain: ATCC25559 for biotransformation. The drug concentrations were measured before and after a 12-h incubation by liquid-chromatography-coupled mass spectrometry (LC–MS); settings: 2 µM

| Compound | Bacterial Biotransformation [1] | Bacterial Biotransformation [2] | Bacterial Biotransformation [3] | Bacterial Biotransformation [4] | Bacterial Biotransformation [5] | Bacterial Biotransformation [6] |
| --- | --- | --- | --- | --- | --- | --- |
| O=C1NCC2(CCN(CCc3ccccc3)CC2)O1 [FENSPIRIDE] | Compound NOT metabolized | Compound NOT metabolized | Compound NOT metabolized | Compound metabolized |  |  |
| CC(=O)CCCCn1c(=O)c2c(ncn2C)n(C)c1=O [PENTOXIFYLLINE] | Compound NOT metabolized | Compound NOT metabolized | Compound NOT metabolized | Compound NOT metabolized | Compound NOT metabolized |  |
| CCN(CC)C(C)CN1c2ccccc2Sc2ccccc21 (stereo unspecified) [ETHOPROPAZINE] | Compound NOT metabolized | Compound NOT metabolized | Compound NOT metabolized | Compound NOT metabolized | Compound NOT metabolized |  |
| Nc1nnc(-c2cccc(Cl)c2Cl)c(N)n1 [LAMOTRIGINE] | Compound NOT metabolized | Compound NOT metabolized | Compound NOT metabolized |  |  |  |
| COC(=O)C1=C(C)NC(C)=C(C(=O)OC(C)C)C1c1cccc2nonc12 (stereo unspecified) [ISRADIPINE] | Compound NOT metabolized |  | Compound NOT metabolized | Compound NOT metabolized | Compound NOT metabolized | Compound NOT metabolized |
| O=C(O)CCc1nc(-c2ccccc2)c(-c2ccccc2)o1 [OXAPROZIN] | Compound NOT metabolized | Compound metabolized | Compound NOT metabolized | Compound metabolized | Compound NOT metabolized |  |
| Fc1ccc([C@@H]2CCNC[C@H]2COc2ccc3c(c2)OCO3)cc1 [PAROXETINE] | Compound metabolized | Compound NOT metabolized | Compound NOT metabolized | Compound NOT metabolized |  |  |
| Br.COc1ccc2c(c1)[C@]13CCCC[C@@H]1[C@H](C2)N(C)CC3.O [DEXTROMETHORPHAN HYDROBROMIDE] | Compound NOT metabolized | Compound NOT metabolized | Compound NOT metabolized | Compound NOT metabolized | Compound NOT metabolized |  |
| CN1CCC(OC(c2ccccc2)c2ccccc2)CC1 | Compound NOT metabolized | Compound NOT metabolized | Compound NOT metabolized | Compound NOT metabolized | Compound NOT metabolized |  |
| CN1CCOC(c2ccccc2)c2ccccc2C1 (stereo unspecified) [NEFOPAM] | Compound NOT metabolized | Compound NOT metabolized | Compound NOT metabolized | Compound NOT metabolized | Compound NOT metabolized |  |
| COc1ccc2c3c1O[C@H]1C[C@@H](O)C=C[C@@]31CCN(C)C2 [GALANTAMINE] | Compound metabolized | Compound metabolized | Compound NOT metabolized |  |  |  |
| OCCN(CCO)c1nc(N2CCCCC2)c2nc(N(CCO)CCO)nc(N3CCCCC3)c2n1 [DIPYRIDAMOLE] | Compound NOT metabolized | Compound NOT metabolized | Compound NOT metabolized | Compound metabolized |  | Compound NOT metabolized |
| COCCCC/C(=N\OCCN)c1ccc(C(F)(F)F)cc1.O=C(O)/C=C\C(=O)O [FLUVOXAMINE MALEATE] | Compound NOT metabolized | Compound NOT metabolized | Compound NOT metabolized |  | Compound NOT metabolized |  |
| CC(=O)O[C@]1(C(C)=O)CC[C@H]2[C@@H]3C=C(C)C4=CC(=O)CC[C@]4(C)[C@H]3CC[C@@]21C [MEGESTROL ACETATE] | Compound NOT metabolized |  | Compound NOT metabolized | Compound metabolized | Compound NOT metabolized | Compound NOT metabolized |
| Nc1nc(N)nc(-c2cc(Cl)ccc2Cl)n1.O=C(O)/C=C\C(=O)O [IRSOGLADINE MALEATE] | Compound NOT metabolized | Compound NOT metabolized | Compound NOT metabolized | Compound NOT metabolized | Compound NOT metabolized |  |
| COc1ccc(Cc2nccc3cc(OC)c(OC)cc23)cc1OC [PAPAVERINE] | Compound NOT metabolized | Compound NOT metabolized | Compound NOT metabolized |  | Compound NOT metabolized | Compound NOT metabolized |

| Compound | Bacterial Biotransformation [1] | Bacterial Biotransformation [2] | Bacterial Biotransformation [3] | Bacterial Biotransformation [4] | Bacterial Biotransformation [5] | Bacterial Biotransformation [6] |
| --- | --- | --- | --- | --- | --- | --- |
| C[C@H]1O[C@@H](O[C@H]2[C@@H](O)C[C@H](O[C@H]3[C@@H](O)C[C@H](O[C@H]4CC[C@@]5(C)[C@H](CC[C@@H]6[C@@H]5C[C@@H](O)[C@]5(C)[C@@H](C7=CC(=O)OC7)CC[C@]65O)C4)O[C@@H]3C)O[C@@H]2C)C[C@H](O)[C@@H]1O [DIGOXIN] | Compound NOT metabolized | Compound NOT metabolized | Compound NOT metabolized | Compound NOT metabolized | Compound NOT metabolized |  |
| O=C(Nc1ccccc1)OCC(CN1CCCCC1)OC(=O)Nc1ccccc1 (stereo unspecified) [DIPERODON] | Compound NOT metabolized | Compound NOT metabolized | Compound NOT metabolized | Compound NOT metabolized |  |  |
| CC(C)N(CCC(C(N)=O)(c1ccccc1)c1ccccn1)C(C)C.O=P(O)(O)O (stereo unspecified) [DISOPYRAMIDE PHOSPHATE] | Compound NOT metabolized | Compound NOT metabolized | Compound NOT metabolized |  | Compound NOT metabolized |  |
| COCCc1ccc(OCC(O)CNC(C)C)cc1.COCCc1ccc(OCC(O)CNC(C)C)cc1.O=C(O)C(O)C(O)C(=O)O (stereo unspecified) [METOPROLOL TARTRATE] | Compound NOT metabolized | Compound NOT metabolized | Compound NOT metabolized | Compound NOT metabolized |  | Compound NOT metabolized |
| OC(Cn1cncn1)(Cn1cncn1)c1ccc(F)cc1F [FLUCONAZOLE] | Compound NOT metabolized | Compound NOT metabolized | Compound metabolized | Compound metabolized |  | Compound NOT metabolized |
| CC(C)c1c(CN(C)C(C)Cc2ccccc2)n(C)n(-c2ccccc2)c1=O (stereo unspecified) [FAMPROFAZONE] | Compound metabolized | Compound metabolized | Compound NOT metabolized | Compound metabolized | Compound metabolized |  |
| CN1CCN2c3ccccc3Cc3ccccc3C2C1 (stereo unspecified) [MIANSERIN] | Compound NOT metabolized | Compound NOT metabolized | Compound NOT metabolized | Compound NOT metabolized |  |  |
| CN(C)CCC=C1c2ccccc2COc2ccccc21 [DOXEPIN] | Compound NOT metabolized | Compound NOT metabolized | Compound NOT metabolized |  | Compound NOT metabolized |  |
| CN1C(=O)CC(C)(c2ccccc2)C1=O (stereo unspecified) [METHSUXIMIDE] | Compound NOT metabolized | Compound NOT metabolized | Compound NOT metabolized | Compound NOT metabolized | Compound NOT metabolized |  |
| CN1CCc2c(c3ccccc3n2Cc2ccccc2)C1.CN1CCc2c(c3ccccc3n2Cc2ccccc2)C1.O=S(=O)(O)c1cccc2c(S(=O)(=O)O)cccc12 | Compound NOT metabolized | Compound NOT metabolized | Compound NOT metabolized | Compound NOT metabolized |  | Compound NOT metabolized |
| Cc1ccccc1C(OCCN(C)C)c1ccccc1.O=C(O)CC(O)(CC(=O)O)C(=O)O (stereo unspecified) [ORPHENADRINE CITRATE] | Compound NOT metabolized | Compound NOT metabolized | Compound NOT metabolized |  | Compound NOT metabolized |  |
| Cc1ccnc2c1NC(=O)c1cccnc1N2C1CC1 [NEVIRAPINE] | Compound NOT metabolized | Compound NOT metabolized | Compound NOT metabolized | Compound NOT metabolized | Compound NOT metabolized |  |
| CN(C)C(=O)Oc1cccc([N+](C)(C)C)c1.[Br-] [NEOSTIGMINE BROMIDE] | Compound NOT metabolized | Compound NOT metabolized | Compound NOT metabolized | Compound metabolized |  | Compound NOT metabolized |
| O=C1[C@H](CC[C@H](O)c2ccc(F)cc2)[C@@H](c2ccc(O)cc2)N1c1ccc(F)cc1 [EZETIMIBE] | Compound NOT metabolized | Compound NOT metabolized | Compound NOT metabolized | Compound NOT metabolized | Compound NOT metabolized |  |
| CC(C)[C@H]1CC[C@H](C(=O)N[C@H](Cc2ccccc2)C(=O)O)CC1 [NATEGLINIDE] | Compound NOT metabolized | Compound NOT metabolized | Compound NOT metabolized |  |  |  |
